Experimental data as given in US20120101099A1, “HISTONE DEACETYLASE INHIBITORS” (ANTHEM BIOSCIENCES PRIVATE LIMITED, priority 2009, published 2012).
Where a name gives a salt, the structure may show the parent alone. Read-outs that look alike come from different tables or passages of the source.

Columns and labels:
NCI-H23 = test: Anti-proliferative activity (GI50); assay type: cell-based; settings: Homo sapiens, Table 9, Lung
Protocol: (§1) Cells were seeded in a 96-well cell culture plates at a concentration of 10,000 cells per well and incubated at 37° C. in CO2 incubator.
(§2) Twenty-four hours later cells were treated with different concentrations (100, 10, 1, 0.1, and 0.01 μM) of compound dissolved in DMSO and incubated for 48 hours. For To measurement, 24 hours after seeding the cells, 20 μL of 3-(4.5-dimethyl-2- thiazolyl)-2,5-diphenyl-2H-tetrazolium (MTT) solution per well was added to the T0 plate and incubated for 3 hours at 37° C. in a CO2 incubator.
(§3) The plate containing cells and test compounds was treated similarly after 48 hours of incubation. After 3 hours of MTT addition, well contents were aspirated carefully followed by addition of 100 μL DMSO per well. Plates were agitated to ensure dissolution of the formazan crystals in DMSO and absorbance was read at 570 nm (A570). […] From the percentage growths a dose response curve was generated and GI50 values were interpolated from the growth curves.

786-O = test: Anti-proliferative activity (GI50); assay type: cell-based; settings: Homo sapiens, 786-0; Table 9; Renal
Protocol: as §1, §2, §3

SK-OV-3 = test: Anti-proliferative activity (GI50); assay type: cell-based; settings: Homo sapiens, Table 9, Ovary
Protocol: as §1, §2, §3

Hela-229 = test: Anti-proliferative activity (GI50); assay type: cell-based; settings: Homo sapiens, Table 9, Cervix
Protocol: as §1, §2, §3

Caspase-3 = Caspase-3 activity in HT-29 cells; assay type: cell-based; settings: Homo sapiens, 48 hours
Protocol: Caspase-3 activity was measured in HT-29 cells using Caspase-3 assay kit, (Sigma). HT-29 cells were seeded (10,000 cells/well) in a 96 well plate and incubated overnight. Cells were treated with several concentrations (30, 10, 3, 1, 0.3, 0.1, 0.03, 0.01 μM) of the compounds and incubated for 48 hours and the cells were lysed. Assay was carried out according to the manufacturer's protocol. The fluorescent substrate was added in to the cell lysate and the fluorescence was measured at λexi360 and λemi460.

hERG = biological target: T1, hERG (Homo sapiens, UniProt Q12809); test: hERG competitive binding assay (3H-Astemizole); settings: hERG-CHO membrane, 1 nM 3H-Astemizole
T1 construct: expressed in transfected cells; host or cells: CHO cells (membrane preparation)
T1 sequence (Q12809 whole entry): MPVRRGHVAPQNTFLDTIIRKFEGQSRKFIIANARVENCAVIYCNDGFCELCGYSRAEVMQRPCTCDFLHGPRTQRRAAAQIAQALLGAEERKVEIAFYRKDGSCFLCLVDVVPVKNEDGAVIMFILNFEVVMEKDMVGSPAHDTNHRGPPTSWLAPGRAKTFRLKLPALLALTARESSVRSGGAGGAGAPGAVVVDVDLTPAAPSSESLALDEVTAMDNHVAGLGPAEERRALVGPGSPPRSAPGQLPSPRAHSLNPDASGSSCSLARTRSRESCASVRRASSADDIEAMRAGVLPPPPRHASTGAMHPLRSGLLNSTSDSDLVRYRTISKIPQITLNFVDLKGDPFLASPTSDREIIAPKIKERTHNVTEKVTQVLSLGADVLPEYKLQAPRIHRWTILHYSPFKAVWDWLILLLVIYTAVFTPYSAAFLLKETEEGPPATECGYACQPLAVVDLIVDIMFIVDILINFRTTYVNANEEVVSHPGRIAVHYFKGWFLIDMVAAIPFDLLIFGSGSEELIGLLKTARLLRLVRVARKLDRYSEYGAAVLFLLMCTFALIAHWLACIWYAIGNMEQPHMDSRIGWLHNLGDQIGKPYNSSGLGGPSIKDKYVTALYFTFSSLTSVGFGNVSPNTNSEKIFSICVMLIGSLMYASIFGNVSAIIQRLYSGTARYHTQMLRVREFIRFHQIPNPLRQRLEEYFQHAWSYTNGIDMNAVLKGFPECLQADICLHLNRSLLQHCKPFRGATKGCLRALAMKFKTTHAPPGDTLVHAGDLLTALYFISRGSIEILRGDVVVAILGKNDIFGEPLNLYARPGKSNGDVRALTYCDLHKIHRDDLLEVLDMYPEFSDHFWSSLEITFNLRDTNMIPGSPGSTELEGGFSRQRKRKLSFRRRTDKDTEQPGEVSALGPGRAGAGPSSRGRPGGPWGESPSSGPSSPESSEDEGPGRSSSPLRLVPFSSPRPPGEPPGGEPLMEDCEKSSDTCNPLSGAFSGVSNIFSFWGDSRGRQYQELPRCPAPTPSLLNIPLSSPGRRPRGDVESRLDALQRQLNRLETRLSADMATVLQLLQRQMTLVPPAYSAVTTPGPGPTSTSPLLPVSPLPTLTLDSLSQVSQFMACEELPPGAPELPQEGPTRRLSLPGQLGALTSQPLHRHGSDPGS
Protocol: The study was carried out to find our cardio safety of the test compounds. Brief procedure: The hERG competitive binding assay performed at a ligand concentration of 1 nM. The test compounds were dissolved in desired volume of 100% DMSO (stock conc. 50 mM). […] The test compound and membrane was pre-incubated for 10 Min at 30° C. 10 μL of ^3H-Astemizole was then added (final concentration of 1 nM), mixed well and incubated additionally for 90 min at 30° C. with mild shaking. At the end of reaction, binding was terminated by rapid filtration onto GF/C glass fiber filter mats, presoaked in 0.3% polyethyleneimine, followed by rapid washing 10 times with ice-cold wash buffer. Captured radiolabel was detected using a liquid scintillation counter. The percent inhibition of the compounds was calculated compared to the vehicle control.

P21 = test: p21 induction in HeLa cells (Western Blot); assay type: cell-based; design: key: represented by the symbol ‘+’ which indicates the relative extent of modulation; ++: represented by the symbol ‘+’ which indicates the relative extent of modulation; +++: represented by the symbol ‘+’ which indicates the relative extent of modulation; ++++: represented by the symbol ‘+’ which indicates the relative extent of modulation; settings: 24 hrs, 0.03-3.0 μM
Protocol: HeLa Cells were seeded at a density of 0.5×10^6 Cells/well into 6 well plates and incubated for 24 hrs. Compounds were tested at 5 different concentrations (0.03, 0.1, 0.3, 1.0, 3.0 μM) including corresponding controls. After 24 hrs cells were lysed and the cellular extract was used for measuring P21 induction by Western Blot using monoclonal Anti-p21 clone CP74 antibody (Sigma).

[1] = test system: human HDAC (Hela cells nuclear extract); test: HDAC activity screening, Hela nuclear extract, Boc-Lys(Ac)-AMC substrate; assay type: biochemical; settings: for HDAC % Inhibition (1 μM): 1 μM compound; for HDAC % Inhibition (10 μM): 10 μM compound
Protocol: To study the human HDAC inhibition the in-house 96 well plate assay have been established using fluorescent substrate (Boc-Lys (Ac)-AMC Substrate). Hela cells nuclear extract have been used as enzyme source.
Assay was performed in 96-well black microplate and total volume of the assay was 100 μL. Hela nuclear extract was diluted HDAC assay buffer (final concentration of 3.0 μg/mL). Enzyme mixture was made of 10 μL of diluted enzyme and 30 μL of HDAC buffer. 40 μl of enzyme mixture followed by 10 μL of test compound (final concentration from 0.01 to 10 μM) or vehicle (control) was added to each well. The plate was pre-incubated at 37° C. for 10 minutes. The HDAC reaction was started by adding 50 μl of HDAC substrate Boc-Lys (Ac)-AMC (Anaspec, Inc Fremont, Calif., USA). The plate was incubated at 37° C. for 45 minutes. The reaction was stopped by adding 50 μL of Trypsin stop solution and plate further incubated at 37° C. for 15 minutes. Measuring the fluorescence at excitation wavelength of 360 nm and emission wavelength of 460 nm monitored the release of AMC. Buffer alone and substrate alone served as blank.

HL-60 (AML) cells = test: Differentiation assay; assay type: cell-based; settings: Homo sapiens, 72 h; HL-60 cells, 3 days, H2 DCF-DA oxidation
Protocol: HL-60 (AML) cells were seeded (5×10^4 cells/well) into a 96 well plate and after 24 hrs cells were treated for 3 days with compounds in 8 different concentration (3000, 1000, 300, 100, 30, 10, 3, 1 nM) including control and 60 μM of H2 DCF-DA probe added to the cells. After 2 hours incubation oxidation of H2 DCF-DA was measured.

[2] = read-out: IC50 (50% HDAC inhibitory concentration), Table 2, Hela nuclear extract

GI50 (NCI-H23) [nM]	GI50 (786-O) [nM]	GI50 (SK-OV-3) [nM]	GI50 (Hela-229) [nM]	EC50 (Caspase-3) [nM]	IC50 [1, 2] [nM]	EC50 (HL-60 (AML) cells) [nM]	SMILES	IC50 (hERG) [µM]	P21 induction (P21)	HDAC % Inhibition (1 μM) ([1]; Hela nuclear extract) [%]	HDAC % Inhibition (10 μM) ([1]; Hela nuclear extract) [%]	IC50 ([1]; Table 8, read-out: IC50 (nM) Hela nuclear extract) [nM]
2300 ± 1140	2500 ± 1010	1800 ± 200	1400 ± 260	1500	57	–	O=C(NO)c1ccc(Cn2cc(-c3ccc(CN4CCOCC4)cc3)nn2)cc1 [Example 9, N-Hydroxy-4-[4-(4-morpholin-4-ylmethyl-phenyl)-[1,2,3]triazol-1-ylmethyl]-benzamide]	> 100	+	91	99	–
–	–	–	–	–	–	–	O=C(CCCCCCC(=O)Nc1ccccc1)NO [SAHA, Suberoylanilide Hydroxamic Acid, reference compound]	–	+++	–	–	–
520 ± 40	2650 ± 80	40 ± 16	1000 ± 270	6590	4	2880	O=C(/C=C/c1ccc(Cn2cc(-c3ccc(CN4CCCC4)cc3)nn2)cc1)NO [Example 16, N-Hydroxy-3-{4-[4-(4-pyrrolidin-1-ylmethyl-phenyl)-[1,2,3]triazol-1-ylmethyl]-phenyl}-acrylamide]	> 100	+	99	100	–
400 ± 90	1500 ± 700	500 ± 1200	600 ± 380	3620	1	3830	O=C(/C=C/c1cccc(Cn2cc(-c3ccc(CN4CCOCC4)cc3)nn2)c1)NO [Example 25, N-Hydroxy-3-{3-[4-(4-morpholin-4-ylmethyl-phenyl)-[1,2,3]triazol-1-ylmethyl]-phenyl}-acrylamide hydrochloride]	> 100	++	100	101	–
500 ± 240	2000 ± 1100	1700 ± 160	700 ± 470	4090	8	–	CN(C)Cc1ccc(-c2cn(Cc3ccc(/C=C/C(=O)NO)cc3)nn2)cc1 [Example 21]	42.6	–	98	100	–

SMILES	GI50 (NCI-H23) [nM]	GI50 (786-O) [nM]	GI50 (SK-OV-3) [nM]	GI50 (Hela-229) [nM]	EC50 (Caspase-3) [nM]	IC50 [1, 2] [nM]	EC50 (HL-60 (AML) cells) [nM]	IC50 (hERG) [µM]	P21 induction (P21)	HDAC % Inhibition (1 μM) ([1]; Hela nuclear extract) [%]	HDAC % Inhibition (10 μM) ([1]; Hela nuclear extract) [%]	IC50 ([1]; Table 8, read-out: IC50 (nM) Hela nuclear extract) [nM]
O=C(NO)c1ccc(Cn2cc(-c3ccc(CN4CCCC4)cc3)nn2)cc1 [Example 8, N-Hydroxy-4-[4-(4-pyrrolidin-1-ylmethyl-phenyl)-[1,2,3]triazol-1-ylmethyl]-benzamide]	900 ± 250	4100 ± 1400	1600 ± 100	1100 ± 230	1360	3	8240	19.9	+	95	100	3
